# In ChEMBL document CHEMBL1154198, “Chemical genetics of Plasmodium falciparum” (Nature, 2010):
# Assays:
# [1] = tested on: Plasmodium falciparum; experiment: ST_JUDE: Plasmodium falciparum 3D7 EC50 (uM) as measured by SYBR green dye; format: functional, organism-based
# [2] = tested on: Plasmodium falciparum; experiment: ST_JUDE: Plasmodium falciparum K1 EC50 (uM) as measured by SYBR green dye; format: functional, organism-based
Structure (SMILES),EC50 [1],EC50 [2]
CC(=O)NC1=C(Cl)C(=O)c2ccccc2C1=O,4.04 µM,2.21 µM
O=C(Nc1cccc(Cl)c1)c1cc2ccccc2cc1O,> 15 µM,0.568 µM
Cc1cccnc1Nc1nc(-c2ccccn2)cs1,1.84 µM,1.32 µM
CC(=O)c1ccc(NC(=O)C2c3ccccc3C(=O)N(CC(C)C)C2c2cccs2)cc1 (stereo not drawn),0.571 µM,0.682 µM
O=C(c1ccc(Cl)cc1Cl)N1CCCC(C(F)(F)F)C1 (stereo not drawn),1.46 µM,> 15 µM
CCC(=O)NC(c1ccco1)c1cc(Cl)c2cccnc2c1O (stereo not drawn),> 15 µM,2.69 µM
CN(C)c1ccc(C2N(C)c3ccccc3N2C)cc1,4.27 µM,4.44 µM
CCOC(=O)c1ccc(NC2=C(N3CCCCC3)C(=O)c3ccccc3C2=O)cc1,0.0422 µM,0.111 µM
CC(C)C(=O)N1CCOc2c(cc(-c3csc4ccccc34)cc2OCCc2ccccn2)C1,> 15 µM,4.48 µM
CC(C)(C)c1ccc(-c2cc(-c3cc(Cl)ccc3O)[nH]n2)cc1,4.23 µM,1.34 µM
CCN(CC)CCNC(=O)c1ccc(Cn2c(SCc3cccc(C)c3)nc3ccncc32)cc1,6.75 µM,> 15 µM
Cc1cccc(/C=C/c2ccc3cccc(O)c3n2)c1O,4.68 µM,1.33 µM
CCOc1ccc(-c2nonc2NC(=O)c2ccccc2C)cc1OCC,> 15 µM,1.38 µM
Cc1ccc(O)c(Nc2nc(-c3ccccc3)nc3ccccc23)c1,3.83 µM,1.31 µM
CCCc1cc(O)nc(-n2nc(C)cc2NC(=O)c2ccccc2F)n1,> 15 µM,> 15 µM
CCCC(=O)NC(Nc1ccc(S(=O)(=O)Nc2cc(C)on2)cc1)(C(=O)OCC)C(F)(F)F (stereo not drawn),1.85 µM,5.22 µM
O=C(NCCN1CCOCC1)C(=O)Nc1ccc(F)cc1F,> 15 µM,> 15 µM
CCc1ccccc1Nc1nc(-c2cccnc2)cs1,> 15 µM,> 15 µM
COc1cc(NC(=O)COc2cc(C)c(Cl)c(C)c2)cc(OC)c1,> 15 µM,> 15 µM
CCc1ccc(CNCC(O)c2ccccc2)cc1 (stereo not drawn),2.17 µM,1.37 µM
CCOC(=O)c1sc(N2C(=O)C(O)=C(C(=O)c3ccc(Cl)cc3)C2c2ccccc2)nc1C (stereo not drawn),> 15 µM,> 15 µM
CCOC(=O)c1c(NC(=O)c2ccc(Cl)cc2Cl)sc(C)c1C,> 15 µM,> 15 µM
COc1ccccc1CNC(=O)C1c2ccccc2C(=O)N(CC(C)C)C1c1cccs1 (stereo not drawn),3.16 µM,3.7 µM

Structure (SMILES),EC50 [1],EC50 [2]
CCN(CC)CCn1c(=N)n(CC(O)COc2ccc(Cl)cc2Cl)c2ccccc21 (stereo not drawn),0.954 µM,2.88 µM
Oc1cccc2ccc(/C=C/c3ccccc3Br)nc12,> 15 µM,9.71 µM
CC(C)/N=C1\C(=O)c2ccccc2C(O)=C1Cl,1.23 µM,0.53 µM
Cc1ccc(S(=O)(=O)Nc2cc(Sc3nc[nH]n3)c(O)c3ccccc23)c(C)c1,3.67 µM,5.53 µM
CC(C)(CO)CN1CCC(C(=O)Nc2ccc(-c3nc4ccccc4[nH]3)cc2)CC1,6.81 µM,> 15 µM
CC1CCN(CCCNc2cc(NCCO)c([N+](=O)[O-])c3nonc23)CC1,> 15 µM,> 15 µM
CCCc1cc(O)nc(-n2nc(C)cc2NC(=O)COc2ccc(OC)cc2)n1,> 15 µM,> 15 µM
COc1ccc(C2C(C#N)=C(C(C)(C)C)Nc3ncnn32)cc1 (stereo not drawn),8.08 µM,> 15 µM
COc1ccc(C(=O)NC(Nc2ccc(Cl)cc2)C(Cl)(Cl)Cl)cc1OC (stereo not drawn),1.53 µM,1.86 µM
Cc1ccc(NC(=O)Cn2c(C)c(C=O)c3ccccc32)cc1Cl,> 15 µM,4.63 µM
CCOC(=O)c1c(NC(=O)C(c2ccccc2)c2ccccc2)sc(C(=O)N(CC)CC)c1C,> 15 µM,> 15 µM
Oc1c(C(Nc2ccccn2)c2ccc(Cl)cc2)ccc2cccnc12 (stereo not drawn),2.72 µM,4.11 µM
COC(=O)CNC(c1ccccc1)c1cc(Br)ccc1NC(=O)c1ccccc1 (stereo not drawn),6.83 µM,6.06 µM
O=[N+]([O-])c1ccc2ncnc(Nc3cc(Cl)ccc3O)c2c1,1.62 µM,1.75 µM
CCOc1cc(Br)c(C2NC(=O)NC(c3ccccc3)=C2C(C)=O)cc1OCC (stereo not drawn),1.51 µM,> 15 µM
Cc1ccn2c(Nc3ccccc3)c(-c3ccccn3)nc2c1,> 15 µM,> 15 µM
CNC(=O)C(=O)N1CCC2(CC1)OCCN2S(=O)(=O)c1ccc(C)cc1,> 15 µM,> 15 µM
CCCSc1nnc(Cn2c(=O)sc3ccccc32)n1C,> 15 µM,> 15 µM
CCCCCCCCn1cnc2ccccc21,> 15 µM,> 15 µM
CSc1ccc(C2CC(=O)NC3=C2C(=O)CC(c2ccccc2Cl)C3)cc1 (stereo not drawn),2.21 µM,1.17 µM
COc1ccccc1N1CCN(Cc2cc(COC(C)C)c3cccnc3c2O)CC1,5.28 µM,> 15 µM
Cc1c(N)cc[n+](CC(=O)c2ccccc2)c1C,> 15 µM,5.97 µM
COc1ccc(Cn2c(SCc3ccccc3F)nc3nccnc3c2=O)cc1,0.344 µM,11.7 µM

Structure (SMILES),EC50 [1],EC50 [2]
CC(C)C(=O)NC(c1ccc(Cl)cc1Cl)c1ccc2cccnc2c1O (stereo not drawn),3.65 µM,4.6 µM
COc1ccc(Cl)c2sc(N(Cc3cccnc3)C(=O)c3ccc(S(C)(=O)=O)cc3)nc12,> 15 µM,> 15 µM
COC(=O)c1c(S(=O)(=O)N2CCCC2)sc2c1CCN(CCC(C)c1ccccc1)C2 (stereo not drawn),4.39 µM,4.78 µM
O=C(Nc1nc(-c2ccccn2)cs1)c1ccccc1[N+](=O)[O-],4.99 µM,6.94 µM
CCC[N+]12CCC(CC1)C(C(=O)c1cccs1)C2 (stereo not drawn),> 15 µM,> 15 µM
COc1ccc(OC)c(N2C(=O)c3cccc4c([N+](=O)[O-])ccc(c34)C2=O)c1,> 15 µM,> 15 µM
Cc1ccc2c(c1)-c1c(cnn1CC(=O)Nc1cccc(C#N)c1)CO2,> 15 µM,5.38 µM
CCN(CC)CCCC(C)Nc1nc(C)nc2cc(Cl)ccc12 (stereo not drawn),6.6 µM,> 15 µM
O=C(Nc1ccc(Cl)cc1)Nc1cc(Cl)cc(Cl)c1,3.21 µM,1.63 µM
C=CCN1C(=O)c2[nH]nc(-c3c(C)cc(C)cc3O)c2C1c1ccc(OC)cc1 (stereo not drawn),2.07 µM,1.45 µM
COCCCn1c(=N)c(C(=O)NCc2cccnc2)cc2c(=O)n3cccc(C)c3nc21,> 15 µM,> 15 µM
O=C(Nc1ccc(F)cc1)C1c2ccccc2C(=O)N(C2CCCC2)C1c1cccs1 (stereo not drawn),0.808 µM,0.975 µM
COc1ccc(N(CC(=O)Nc2cccc(C(F)(F)F)c2)S(C)(=O)=O)cc1,> 15 µM,> 15 µM
Cc1ccc(OCC(=O)Nc2cc(C)nn2-c2nc(C)cc(O)n2)cc1,> 15 µM,> 15 µM
COc1cccc(C2=C(C(C)=O)Sc3nnc(C)n3N2C(C)=O)c1,6.59 µM,5.95 µM
CCc1nnc(NC(=O)CCCOc2ccc(Cl)cc2)s1,> 15 µM,> 15 µM
CCOC(=O)N1CCN(C(=O)CN(Cc2ccc(Cl)cc2)S(=O)(=O)c2ccc(C)cc2)CC1,2.53 µM,1.32 µM
CS(=O)(=O)N(Cc1ccccc1)c1ccccc1C(=O)Nc1cc(Cl)ccc1Cl,6.12 µM,4.58 µM
COc1ccc(CN2CCN(Cc3ccccc3)CC2)c(O)c1,1.09 µM,0.754 µM
COc1ccccc1C(=O)N(Cc1cccnc1)c1nc2c(F)cccc2s1,> 15 µM,9.07 µM
CC(=O)Oc1ccc(Cl)cc1/C=C/c1cc(OC(C)=O)c2ccccc2n1,> 15 µM,1.5 µM
CN1C(=O)C(=Cc2ccc(-c3ccc([N+](=O)[O-])cc3O)o2)C(=O)N(C)C1=O,> 15 µM,> 15 µM
OC(CNCc1ccccc1)Cn1c2ccccc2c2ccccc21 (stereo not drawn),3.76 µM,0.81 µM

Structure (SMILES),EC50 [1],EC50 [2]
CO/C(O)=C1\C(C)=NC2=C(C(=O)CC(c3ccc(OC)c(OC)c3)C2)C1c1cccc(Cl)c1 (stereo not drawn),4.1 µM,3.46 µM
O=C(CN1C2=NCCN2c2ccccc21)c1ccc(Cl)cc1Cl,3.28 µM,3.65 µM
CCc1c(C)nc(-n2nc(C)cc2NC(=O)c2ccc(C)c(C)c2)nc1O,> 15 µM,> 15 µM
Cc1ccc2nc(-c3ccc(C)c(NC(=O)C(Cl)(Cl)Cl)c3)oc2c1,> 15 µM,4.17 µM
COc1ccc(CCN2COc3c(cc4c(C)c(C)c(=O)oc4c3C)C2)cc1,6.95 µM,0.802 µM
COc1ccc(OCC(O)Cn2c(C)[n+](C)c3ccccc32)cc1 (stereo not drawn),> 15 µM,> 15 µM
CC(C)c1ccc(/C=C2\Oc3c(ccc(O)c3CN(C)C)C2=O)cc1,1.01 µM,0.615 µM
CCOC(=O)c1ccc(NC(=O)C2CCC(C(C)(C)C)CC2)cc1 (stereo not drawn),> 15 µM,> 15 µM
CCSc1ccc2ccccc2[n+]1CC,0.416 µM,0.259 µM
CSCCCN1C(=O)CSC1c1cnccc1-c1ccc(Br)cc1 (stereo not drawn),1.21 µM,1.17 µM
CC(C)c1ccc(Nc2c(-c3ccccn3)nc3ccccn23)cc1,> 15 µM,> 15 µM
Cc1cc(N2CCN(C)CC2)nc2ccc(NC(=O)/C=C/c3ccccc3OC(C)C)cc12,3.36 µM,5.57 µM
CCC(C)c1ccc(NC(=O)c2ccc(Br)o2)c(O)c1 (stereo not drawn),1.93 µM,2.57 µM
CCOC(=O)c1cnc2ccc(OCC)cc2c1NCCc1ccccc1,> 15 µM,> 15 µM
Cc1cc(Cn2ccnc2)c(C)c([N+](=O)[O-])c1Cn1ccnc1,> 15 µM,> 15 µM
CC(=O)c1c(C)n(CCOc2ccc(F)cc2)c2ccccc12,> 15 µM,4.88 µM
CCc1ccc(N(CC)C(=O)c2cc3cc4ccc(OC)cc4nc3o2)cc1,> 15 µM,> 15 µM
Cc1c(C=O)c2ccccc2n1CC(=O)Nc1ccc(Br)c(Cl)c1,0.702 µM,0.891 µM
CC(=O)N1N=C2C3CCN(CC3)C2C1c1ccc(Br)cc1 (stereo not drawn),> 15 µM,> 15 µM
COc1ccccc1C(=O)N(Cc1cccnc1)c1nc2c(Cl)cccc2s1,> 15 µM,6.66 µM
